We go through four molecules from ChEMBL document CHEMBL1126438, “DNA alkylation properties of the duocarmycins: (+)-duocarmycin A, epi-(+)-duocarmycin A, ent-()-duocarmycin A and epi,ent-()-duocarmycin A” (Bioorg Med Chem Lett, 1992).

One assay has as its system B16. As to the kind of experiment: In vitro evaluation for cytotoxicity against B16 melanoma. The class given is functional, cell-based. The conditions noted are these: Mus musculus.
The test system of another assay is L1210. Briefly: In vitro evaluation for cytotoxicity against L1210 cell line. The conditions noted are these: Mus musculus. In kind it is functional, cell-based.
The subject of the next assay is P388. As to the kind of experiment: In vitro evaluation for cytotoxicity against P388 murine leukemia cell line. In kind it is functional, cell-based, Mus musculus.
Where [1] appears, read: Mus musculus, P388, read-out: IC50.

≈ marks a conversion by molar mass, not a printed value.

For `COC(=O)[C@]1(C)N=C2C(=O)C=C3N(C(=O)c4cc5cc(OC)c(OC)c(OC)c5[nH]4)C[C@H]4C[C@@]34C2=C1O`, the values for the IC50 in the assay with B16, with L1210 and in the assay with P388 (p388) were 0.2 ng/mL (≈ 0.394 nM), 0.1 ng/mL (≈ 0.197 nM) and 0.002 ng/mL (≈ 0.00394 nM), respectively.

In the case of `COC(=O)[C@]1(C)N=C2C(=O)C=C3N(C(=O)c4cc5cc(OC)c(OC)c(OC)c5[nH]4)C[C@@H]4C[C@]34C2=C1O`, the figures for the concentration for half-maximal inhibition (IC50) in the assay on B16, with L1210 and in the assay on P388 (setting [1]) were greater than 3 ng/mL, greater than 12 ng/mL and no less than 0.3 ng/mL, respectively.

Turning to `COC(=O)[C@@]1(C)N=C2C(=O)C=C3N(C(=O)c4cc5cc(OC)c(OC)c(OC)c5[nH]4)C[C@H]4C[C@@]34C2=C1O`, the IC50 (usually the concentration that inhibits the measured activity by half) in the assay with B16 turned out to be 0.8 ng/mL (≈ 1.58 nM); in the assay with L1210 it was 0.8 ng/mL (≈ 1.58 nM); in the assay with P388 (setting [1]), 0.007 ng/mL (≈ 0.0138 nM).

Regarding `COC(=O)[C@@]1(C)N=C2C(=O)C=C3N(C(=O)c4cc5cc(OC)c(OC)c(OC)c5[nH]4)C[C@@H]4C[C@]34C2=C1O`, the IC50 was greater than 3 ng/mL in the assay on B16, greater than 11 ng/mL with L1210 and no less than 0.3 ng/mL in the assay with P388 (setting [1]).
